ChEMBL document CHEMBL5154916, “Multiparameter Optimization of Naphthyridine Derivatives as Selective α5-GABAA Receptor Negative Allosteric Modulators” (J Med Chem, 2022)
Blank lines part the entries; values can stand above or below the molecule they belong to.

Key:
[1] = target: T1, GABA-A receptor; alpha-5/beta-3/gamma-2 (Homo sapiens, UniProt P18507+P28472+P31644); assay: Displacement of [3H]Ro151788 from human recombinant alpha5beta3gamma2 GABAA receptor stably expressed in HEK293 cell membrane assessed as inhibition constant by radioligand binding assay; type: cell membranes
T1 sequence (P18507 whole entry): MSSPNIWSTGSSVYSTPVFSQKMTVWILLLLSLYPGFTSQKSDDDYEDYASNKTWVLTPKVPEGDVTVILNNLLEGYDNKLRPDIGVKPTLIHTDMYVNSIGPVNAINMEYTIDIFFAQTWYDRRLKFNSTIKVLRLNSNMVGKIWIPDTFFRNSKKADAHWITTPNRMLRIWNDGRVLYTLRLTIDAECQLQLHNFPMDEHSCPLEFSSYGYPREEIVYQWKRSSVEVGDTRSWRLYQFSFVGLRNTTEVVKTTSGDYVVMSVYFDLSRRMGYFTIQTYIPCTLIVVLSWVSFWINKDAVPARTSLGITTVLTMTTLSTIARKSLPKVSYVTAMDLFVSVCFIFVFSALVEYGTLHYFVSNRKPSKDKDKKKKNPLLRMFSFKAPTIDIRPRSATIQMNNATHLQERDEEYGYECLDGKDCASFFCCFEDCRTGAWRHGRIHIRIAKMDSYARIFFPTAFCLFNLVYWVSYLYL
T1 sequence (P28472 whole entry): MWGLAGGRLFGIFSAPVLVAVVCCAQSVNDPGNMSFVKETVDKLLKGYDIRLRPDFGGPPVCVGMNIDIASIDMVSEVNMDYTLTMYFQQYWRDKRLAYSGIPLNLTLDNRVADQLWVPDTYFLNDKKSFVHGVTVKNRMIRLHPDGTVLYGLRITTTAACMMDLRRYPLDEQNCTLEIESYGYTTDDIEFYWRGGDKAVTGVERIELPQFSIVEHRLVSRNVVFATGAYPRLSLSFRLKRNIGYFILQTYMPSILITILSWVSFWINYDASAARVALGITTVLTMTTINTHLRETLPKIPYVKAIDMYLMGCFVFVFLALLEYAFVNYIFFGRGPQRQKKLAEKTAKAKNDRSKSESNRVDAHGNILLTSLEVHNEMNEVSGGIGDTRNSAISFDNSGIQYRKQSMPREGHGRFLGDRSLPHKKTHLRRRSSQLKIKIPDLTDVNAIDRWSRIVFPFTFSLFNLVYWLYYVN
T1 sequence (P31644 whole entry): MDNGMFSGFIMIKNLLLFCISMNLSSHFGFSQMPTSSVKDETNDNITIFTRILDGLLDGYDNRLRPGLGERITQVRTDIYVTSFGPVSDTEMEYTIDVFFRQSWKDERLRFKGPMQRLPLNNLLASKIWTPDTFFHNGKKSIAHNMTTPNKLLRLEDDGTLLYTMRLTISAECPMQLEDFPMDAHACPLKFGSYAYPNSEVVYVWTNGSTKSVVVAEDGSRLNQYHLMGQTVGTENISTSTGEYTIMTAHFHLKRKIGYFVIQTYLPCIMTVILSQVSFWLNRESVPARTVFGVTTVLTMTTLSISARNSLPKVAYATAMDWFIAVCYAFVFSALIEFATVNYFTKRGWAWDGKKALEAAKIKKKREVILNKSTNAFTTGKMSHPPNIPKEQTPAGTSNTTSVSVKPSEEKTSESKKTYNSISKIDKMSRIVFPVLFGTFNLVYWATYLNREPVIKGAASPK

[2] = target: T2, GABA-A receptor; alpha-5/beta-3/gamma-2 (Homo sapiens) (UniProt P18507+P28472+P31644); assay: Negative allosteric modulation activity at human recombinant alpha5beta3gamma2 GABAA receptor stably expressed in HEK293 cells assessed as modulation at alpha5 subunit at 1 uM by Patch clamp method; type: cell-based; details: filed as negative allosteric modulator
[3] = target: T2, GABA-A receptor; alpha-5/beta-3/gamma-2 (Homo sapiens); assay: Negative allosteric modulation activity at human recombinant alpha5beta3gamma2 GABAA receptor stably expressed in HEK293 cells assessed as modulation at alpha5 subunit at 10 uM by Patch clamp method; type: cell-based; details: filed as negative allosteric modulator
[4] = target: Voltage-gated inwardly rectifying potassium channel KCNH2 (Homo sapiens, UniProt Q12809); assay: Inhibition of hERG expressed in CHO cells stably at -80 mV holding potential by automated patch clamp method; type: toxicity, cell-based
Chain of Voltage-gated inwardly rectifying potassium channel KCNH2 (Q12809 whole entry): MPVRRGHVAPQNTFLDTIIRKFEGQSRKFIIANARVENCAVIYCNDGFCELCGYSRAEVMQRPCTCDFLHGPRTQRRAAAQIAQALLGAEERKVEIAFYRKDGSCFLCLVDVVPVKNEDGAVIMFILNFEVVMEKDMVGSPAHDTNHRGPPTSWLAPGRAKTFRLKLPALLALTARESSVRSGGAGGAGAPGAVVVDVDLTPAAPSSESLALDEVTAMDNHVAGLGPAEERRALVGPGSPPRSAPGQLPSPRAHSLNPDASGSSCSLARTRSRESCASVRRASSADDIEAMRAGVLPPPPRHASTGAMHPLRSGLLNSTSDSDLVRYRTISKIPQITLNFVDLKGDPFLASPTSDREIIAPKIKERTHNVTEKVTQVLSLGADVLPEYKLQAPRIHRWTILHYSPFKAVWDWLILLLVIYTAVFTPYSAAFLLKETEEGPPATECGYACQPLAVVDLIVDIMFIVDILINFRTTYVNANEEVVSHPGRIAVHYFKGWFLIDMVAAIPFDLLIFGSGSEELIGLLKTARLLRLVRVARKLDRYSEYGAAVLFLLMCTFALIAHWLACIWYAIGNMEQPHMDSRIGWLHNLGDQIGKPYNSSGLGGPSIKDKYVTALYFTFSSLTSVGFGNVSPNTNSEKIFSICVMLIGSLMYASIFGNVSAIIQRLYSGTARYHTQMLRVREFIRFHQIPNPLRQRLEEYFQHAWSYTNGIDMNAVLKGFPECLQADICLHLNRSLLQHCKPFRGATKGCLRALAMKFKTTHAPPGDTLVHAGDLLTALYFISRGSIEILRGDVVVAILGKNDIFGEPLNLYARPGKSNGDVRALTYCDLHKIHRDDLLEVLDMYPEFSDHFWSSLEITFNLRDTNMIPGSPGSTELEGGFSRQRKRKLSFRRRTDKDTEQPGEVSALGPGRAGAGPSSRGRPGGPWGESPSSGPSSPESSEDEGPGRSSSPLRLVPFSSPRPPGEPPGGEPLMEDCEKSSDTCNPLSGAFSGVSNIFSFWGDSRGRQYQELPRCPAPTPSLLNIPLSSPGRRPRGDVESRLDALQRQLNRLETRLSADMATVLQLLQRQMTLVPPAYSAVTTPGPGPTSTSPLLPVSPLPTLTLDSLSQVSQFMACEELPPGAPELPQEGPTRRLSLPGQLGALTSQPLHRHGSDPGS

[5] = Metabolic stability in human liver microsomes assessed as intrinsic clearance at 2.5 uM; type: ADME, Microsome; details: read-out: CLH
[6] = Metabolic stability in Wistar rat liver microsomes assessed as intrinsic clearance at 2.5 uM; type: ADME, Microsome; details: read-out: CLH
[7] = target: GABA-A receptor; alpha-1/beta-3/gamma-2 (Homo sapiens) (UniProt P14867+P18507+P28472); assay: Negative allosteric modulation activity at human recombinant alpha1beta3gamma2 GABAA receptor stably expressed in HEK293 cells assessed as modulation at alpha1 subunit at 10 uM by Patch clamp method; type: cell-based; details: filed as negative allosteric modulator
[8] = Passive permeability in human Caco-2 cells assessed as permeability damage ratio at 10 uM by HPLC-UV analysis; type: ADME, cell-based; details: caco-2, 10 µM
[9] = Apparent permeability in human Caco-2 cells at 10 uM by HPLC-UV analysis; type: ADME, cell-based

Ki [1]: 30 nM | Activity [2]: -16% | Activity [3]: -35% | microsomal CLint at 2.5 µM [5]: 9 µL/min/mg | microsomal CLint at 2.5 µM [6]: 44 µL/min/mg
Structure (SMILES): Cc1onc(-c2ccc(F)cc2)c1COc1ccc2c(n1)CCN(C(=O)CCS(C)(=O)=O)C2
IC50 [4]: 4200 nM

Ki [1]: 13 nM | Activity [2]: -9% | Activity [3]: -25% | Activity [7]: -2% | microsomal CLint at 2.5 µM [5]: 16 µL/min/mg | microsomal CLint at 2.5 µM [6]: 214 µL/min/mg
Structure (SMILES): Cc1onc(-c2ccc(F)cc2)c1COc1ccc2c(n1)CCN(C(C)C)C2=O
IC50 [4]: 4400 nM

Ki [1]: 2.7 nM | Activity [2]: -22% | Activity [3]: -42% | microsomal CLint at 2.5 µM [5]: 49 µL/min/mg | microsomal CLint at 2.5 µM [6]: 356 µL/min/mg
Structure (SMILES): Cc1onc(-c2ccc(F)cc2)c1COc1ccc2c(n1)CCN(C(=O)N(C)C)C2
IC50 [4]: 8300 nM

Ki [1]: 21 nM | Activity [2]: -14% | Activity [3]: -31% | microsomal CLint at 2.5 µM [5]: 85 µL/min/mg | microsomal CLint at 2.5 µM [6]: 365 µL/min/mg
Structure (SMILES): Cc1onc(-c2ccc(F)cc2)c1COc1ccc2c(n1)CCN(Cc1ccco1)C2=O
IC50 [4]: 3500 nM

Ki [1]: 9.9 nM | microsomal CLint at 2.5 µM [5]: 42 µL/min/mg | microsomal CLint at 2.5 µM [6]: 210 µL/min/mg
Structure (SMILES): Cc1onc(-c2ccc(F)cc2)c1COc1ccc2c(n1)CCN(C(=O)C1CCCO1)C2 (stereo unspecified)

Ki [1]: 2.8 nM | Activity [2]: -21% | Activity [3]: -31% | Activity [7]: -8% | microsomal CLint at 2.5 µM [5]: 28 µL/min/mg | microsomal CLint at 2.5 µM [6]: 404 µL/min/mg
Structure (SMILES): Cc1onc(-c2ccc(F)cc2)c1COc1ccc2c(n1)CCN(C)C2=O
IC50 [4]: 3800 nM

Ki [1]: 13 nM | Activity [2]: -7% | Activity [3]: -26% | microsomal CLint at 2.5 µM [5]: 57 µL/min/mg | microsomal CLint at 2.5 µM [6]: 400 µL/min/mg
Structure (SMILES): Cc1onc(-c2ccc(F)cc2)c1COc1ccc2c(n1)CCN(C(=O)C1CCC1)C2
IC50 [4]: > 10000 nM

The remaining lines, values behind:

Structure (SMILES): Cc1onc(-c2ccc(F)cc2)c1COc1ccc2c(n1)CCN(C(=O)C1CCS(=O)(=O)CC1)C2
Ki [1]: 3.6 nM | Activity [2]: -22% | Activity [3]: -38% | Activity [7]: -10% | IC50 [4]: 2900 nM | microsomal CLint at 2.5 µM [5]: 10 µL/min/mg | microsomal CLint at 2.5 µM [6]: 36 µL/min/mg

Structure (SMILES): Cc1onc(-c2ccc(F)cc2)c1COc1ccc2c(n1)CCN(C(=O)N1CCOCC1)C2
Ki [1]: 4.6 nM | Activity [2]: -15% | Activity [3]: -39% | IC50 [4]: 9100 nM | microsomal CLint at 2.5 µM [5]: 32 µL/min/mg | microsomal CLint at 2.5 µM [6]: 142 µL/min/mg

Structure (SMILES): Cc1onc(-c2ccc(F)cc2)c1COc1ccc2c(n1)CCN(C(=O)N1CCCCC1)C2
Ki [1]: 49 nM | IC50 [4]: 10000 nM | microsomal CLint at 2.5 µM [5]: 107 µL/min/mg | microsomal CLint at 2.5 µM [6]: 359 µL/min/mg

Structure (SMILES): Cc1onc(-c2ccc(F)cc2)c1COc1ccc2c(c1)CCC(=O)N2C
Ki [1]: 13 nM | Activity [2]: -6% | Activity [3]: -10%

Structure (SMILES): Cc1nnn(-c2ccc(F)cc2)c1COc1ccc2c(n1)CCN(C(=O)C1CC1)C2
Ki [1]: 49 nM | microsomal CLint at 2.5 µM [5]: 53 µL/min/mg | microsomal CLint at 2.5 µM [6]: 99 µL/min/mg

Structure (SMILES): Cc1onc(-c2ccc(F)cc2)c1COc1cc2c(cn1)C(=O)NCC2
Ki [1]: 0.49 nM | Activity [2]: 15% | Activity [3]: 6%

Structure (SMILES): Cc1nnn(-c2ccc(F)cc2)c1COc1ccc2c(n1)CCN(C(=O)C1CC(=O)N(C)C1)C2 (stereo unspecified)
Ki [1]: 35 nM | Activity [2]: -32% | Activity [3]: -47% | IC50 [4]: 30000 nM | microsomal CLint at 2.5 µM [5]: 1 µL/min/mg | microsomal CLint at 2.5 µM [6]: 4 µL/min/mg | Ratio [8]: 8.9 | Papp at 10 µM [9]: 7.54 ×10⁻⁶ cm/s

Structure (SMILES): Cc1onc(-c2ccc(F)cc2)c1COc1ccc2c(n1)CCN(C(=O)N1CCCC1)C2
Ki [1]: 7.3 nM | Activity [2]: -12% | Activity [3]: -36% | IC50 [4]: 10000 nM | microsomal CLint at 2.5 µM [5]: 45 µL/min/mg | microsomal CLint at 2.5 µM [6]: 279 µL/min/mg
